We go through 15 compounds from patent US12139492B2 (Endotarget Inc., priority 2021, dated 2024).

Broadly, the Dmax is the greatest extent of degradation seen. What is called DC50 is the midpoint of the concentration-degradation curve. Read a high DC50 as a less potent degrader.

One test concerns Mino cells. The test can be described thus: Antiproliferative effect, MTS cell viability assay, Mino cells. The class given is cell-based. The settings on record: Homo sapiens, MINO, Mino mantle cell lymphoma cells; read-out: IC50 (anti-proliferation) Mino cells. Summed up:
(§1)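 Cells were exposed to compound at 0, 0.001, 0.01, 0.1, 1 and 10 μM for 72 h. Viability was then measured by MTS assay, reading formazan produced by metabolically active cells as absorbance at 490 nm.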

A further test deals with JeKo-1 cells. The test can be described thus: Antiproliferative effect, MTS cell viability assay, JeKo-1 cells. The format is cell-based. The settings on record: Homo sapiens; JeKo-1 mantle cell lymphoma cells; read-out: IC50 (anti-proliferation) JeKO-1 cells. Summed up:
as §1
(In general: Tetrazolium assays rely on reduction of a dye to a coloured formazan, in cell work by metabolically active cells.)

The target in the next test is BTK (Homo sapiens, UniProt Q06187). The test can be described thus: Degradation of BTK protein in Namalwa cells (Western blot; DC50, Dmax). The settings on record: for DC50: BTK degradation, cell line not given. Background: Immunoblotting shows a protein as a band on a membrane.
Sequence of BTK (Q06187 whole entry): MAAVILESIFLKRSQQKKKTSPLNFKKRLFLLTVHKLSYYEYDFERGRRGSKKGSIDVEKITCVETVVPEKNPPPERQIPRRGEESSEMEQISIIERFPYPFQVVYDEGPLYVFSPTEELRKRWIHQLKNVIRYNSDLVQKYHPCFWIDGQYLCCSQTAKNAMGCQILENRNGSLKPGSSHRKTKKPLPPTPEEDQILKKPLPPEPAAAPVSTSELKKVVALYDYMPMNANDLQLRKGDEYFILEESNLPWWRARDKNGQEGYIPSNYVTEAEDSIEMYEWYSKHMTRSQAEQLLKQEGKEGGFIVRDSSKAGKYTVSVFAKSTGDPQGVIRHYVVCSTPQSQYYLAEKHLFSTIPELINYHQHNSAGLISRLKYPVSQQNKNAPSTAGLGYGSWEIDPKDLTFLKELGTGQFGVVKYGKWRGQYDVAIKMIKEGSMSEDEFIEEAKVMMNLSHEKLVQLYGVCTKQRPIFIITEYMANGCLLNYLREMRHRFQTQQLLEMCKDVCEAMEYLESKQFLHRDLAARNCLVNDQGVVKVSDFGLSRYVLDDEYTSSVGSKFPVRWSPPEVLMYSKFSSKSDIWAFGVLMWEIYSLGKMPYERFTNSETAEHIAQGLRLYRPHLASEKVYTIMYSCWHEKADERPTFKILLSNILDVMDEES

Regarding `NC(=O)c1c(-c2ccc(Oc3ccccc3)cc2)nn2c1NCC[C@H]2C1CCN(C(=O)N2CCN(CCN3CCN(c4ccc5c(c4)C(=O)N(C4CCC(=O)NC4=O)C5=O)CC3)CC2)CC1` (stereo partly drawn) [Compound 297, (7S)-7-(1-(4-(2-(4-(2-(2,6-dioxopiperidin-3-yl)-1,3-dioxoisoindolin-5-yl)piperazin-1-yl)ethyl)piperazine-1-carbonyl)piperidin-4-yl)-2-(4-phenoxyphenyl)-4,5,6,7-tetrahydropyrazolo[1,5-a]pyrimidine-3-carboxamide], the IC50 in the test on Mino cells lay within 1000 to 10000 nM. Besides, in the test with JeKo-1 cells, the IC50 was in the range of 1000 to 10000 nM. On BTK, this compound came in with a Dmax of more than 90% and a 50% degradation concentration (DC50) of 10 to 50 nM.
Regarding `NC(=O)c1c(-c2ccc(Oc3ccccc3)cc2)nn2c1NCC[C@H]2C1CCN(C(=O)N2CCN(CCN3CCN(c4ccc5c(c4)CN(C4CCC(=O)NC4=O)C5=O)CC3)CC2)CC1` (stereo partly drawn) [Compound 298, (7S)-7-(1-(4-(2-(4-(2-(2,6-dioxopiperidin-3-yl)-1-oxoisoindolin-5-yl)piperazin-1-yl)ethyl)piperazine-1-carbonyl)piperidin-4-yl)-2-(4-phenoxyphenyl)-4,5,6,7-tetrahydropyrazolo[1,5-a]pyrimidine-3-carboxamide], the IC50 in the test on Mino cells and in the test on JeKo-1 cells was 1000 to 10000 nM in each case. In addition, the Dmax on BTK is more than 90%. This compound yielded a DC50 on BTK of 10 to 50 nM.
For `NC(=O)c1c(-c2ccc(Oc3ccccc3)cc2)nn2c1NCC[C@H]2C1CCN(C(=O)N2CCN(CCC3CCN(c4ccc5c(c4)C(=O)N(C4CCC(=O)NC4=O)C5=O)CC3)CC2)CC1` (stereo partly drawn) [Compound 299, (7S)-7-(1-(4-(2-(1-(2-(2,6-dioxopiperidin-3-yl)-1,3-dioxoisoindolin-5-yl)piperidin-4-yl)ethyl)piperazine-1-carbonyl)piperidin-4-yl)-2-(4-phenoxyphenyl)-4,5,6,7-tetrahydropyrazolo[1,5-a]pyrimidine-3-carboxamide], the IC50 in the test on Mino cells fell in the range of 1000 to 10000 nM. Besides, the IC50 with JeKo-1 cells lay in the range of 1000 to 10000 nM. For the same compound, on BTK, the Dmax is more than 75% and the DC50 is 10 to 50 nM.
With `NC(=O)c1c(-c2ccc(Oc3ccccc3)cc2)nn2c1NCC[C@H]2C1CCN(C(=O)N2CCN(CCC3CCN(c4ccc5c(c4)CN(C4CCC(=O)NC4=O)C5=O)CC3)CC2)CC1` (stereo partly drawn) [Compound 300, (7S)-7-(1-(4-(2-(1-(2-(2,6-dioxopiperidin-3-yl)-1-oxoisoindolin-5-yl)piperidin-4-yl)ethyl)piperazine-1-carbonyl)piperidin-4-yl)-2-(4-phenoxyphenyl)-4,5,6,7-tetrahydropyrazolo[1,5-a]pyrimidine-3-carboxamide], the IC50 in the test with Mino cells lay within 1000 to 10000 nM. The IC50 in the test with JeKo-1 cells lay within 1000 to 10000 nM. At BTK, this compound registered a maximal degradation (Dmax) of more than 75% and a half-maximal degradation concentration (DC50) of 10 to 50 nM.
On to `NC(=O)c1c(-c2ccc(Oc3ccccc3)cc2)nn2c1NCC[C@H]2C1CCN(C(=O)N2CCC(CCN3CCC(c4ccc5c(c4)C(=O)N(C4CCC(=O)NC4=O)C5=O)CC3)CC2)CC1` (stereo partly drawn) [Compound 301, (7S)-7-(1-(4-(2-(4-(2-(2,6-dioxopiperidin-3-yl)-1,3-dioxoisoindolin-5-yl)piperidin-1-yl)ethyl)piperidine-1-carbonyl)piperidin-4-yl)-2-(4-phenoxyphenyl)-4,5,6,7-tetrahydropyrazolo[1,5-a]pyrimidine-3-carboxamide], for which the IC50 in the test with Mino cells and in the test on JeKo-1 cells was 1000 to 10000 nM throughout. In addition, at BTK, the Dmax was more than 75%. On BTK, the DC50 was in the range of 10 to 50 nM.
`NC(=O)c1c(-c2ccc(Oc3ccccc3)cc2)nn2c1NCC[C@H]2C1CCN(C(=O)N2CCC(CCN3CCC(c4ccc5c(c4)CN(C4CCC(=O)NC4=O)C5=O)CC3)CC2)CC1` (stereo partly drawn) [Compound 302, (7S)-7-(1-(4-(2-(4-(2-(2,6-dioxopiperidin-3-yl)-1-oxoisoindolin-5-yl)piperidin-1-yl)ethyl)piperidine-1-carbonyl)piperidin-4-yl)-2-(4-phenoxyphenyl)-4,5,6,7-tetrahydropyrazolo[1,5-a]pyrimidine-3-carboxamide]: in the test on Mino cells, the IC50 lay in the range of 1000 to 10000 nM. For the same compound, in the test with JeKo-1 cells, the IC50 was in the range of 1000 to 10000 nM. Also, at BTK, the Dmax is more than 75% and the DC50 lay within 10 to 50 nM.
For `NC(=O)c1c(-c2ccc(Oc3ccccc3)cc2)nn2c1NCC[C@H]2C1CCN(C(=O)N2CCN(CCN3CCC(c4ccc5c(c4)C(=O)N(C4CCC(=O)NC4=O)C5=O)CC3)CC2)CC1` (stereo partly drawn) [Compound 303, (7S)-7-(1-(4-(2-(4-(2-(2,6-dioxopiperidin-3-yl)-1,3-dioxoisoindolin-5-yl)piperidin-1-yl)ethyl)piperazine-1-carbonyl)piperidin-4-yl)-2-(4-phenoxyphenyl)-4,5,6,7-tetrahydropyrazolo[1,5-a]pyrimidine-3-carboxamide], the IC50 in the test with Mino cells lay within 1000 to 10000 nM. For the same compound, the IC50 with JeKo-1 cells was 1000 to 10000 nM. On BTK, this compound returned a Dmax of more than 75% and a DC50 of 10 to 50 nM.
Regarding `NC(=O)c1c(-c2ccc(Oc3ccccc3)cc2)nn2c1NCC[C@H]2C1CCN(C(=O)N2CCN(CCN3CCC(c4ccc5c(c4)CN(C4CCC(=O)NC4=O)C5=O)CC3)CC2)CC1` (stereo partly drawn) [Compound 304, (7S)-7-(1-(4-(2-(4-(2-(2,6-dioxopiperidin-3-yl)-1-oxoisoindolin-5-yl)piperidin-1-yl)ethyl)piperazine-1-carbonyl)piperidin-4-yl)-2-(4-phenoxyphenyl)-4,5,6,7-tetrahydropyrazolo[1,5-a]pyrimidine-3-carboxamide], in the test on Mino cells, the IC50 was in the range of 1000 to 10000 nM. Moreover, in the test with JeKo-1 cells, the IC50 lay within 1000 to 10000 nM. On BTK, this compound yielded a Dmax of more than 75% and a DC50 of 10 to 50 nM.
`NC(=O)c1c(-c2ccc(Oc3ccccc3)cc2)nn2c1NCCC2C1CCN(C2CCN(CC3CCN(c4ccc5c(c4)C(=O)N(C4CCC(=O)NC4=O)C5=O)CC3)CC2)CC1` (stereo not drawn) [Compound 305, 7-(1′-((1-(2-(2,6-dioxopiperidin-3-yl)-1,3-dioxoisoindolin-5-yl)piperidin-4-yl)methyl)-[1,4′-bipiperidin]-4-yl)-2-(4-phenoxyphenyl)-4,5,6,7-tetrahydropyrazolo[1,5-a]pyrimidine-3-carboxamide]: the IC50 in the test with Mino cells fell in the range of 1000 to 10000 nM. The IC50 with JeKo-1 cells fell in the range of 1000 to 10000 nM. On BTK, this compound displayed a Dmax of more than 90% and a half-maximal degradation concentration (DC50) of 10 to 50 nM.
Take `NC(=O)c1c(-c2ccc(Oc3ccccc3)cc2)nn2c1NCCC2C1CCN(C2CCN(CC3CCN(c4ccc5c(c4)CN(C4CCC(=O)NC4=O)C5=O)CC3)CC2)CC1` (stereo not drawn) [Compound 306, 7-(1′-((1-(2-(2,6-dioxopiperidin-3-yl)-1-oxoisoindolin-5-yl)piperidin-4-yl)methyl)-[1,4′-bipiperidin]-4-yl)-2-(4-phenoxyphenyl)-4,5,6,7-tetrahydropyrazolo[1,5-a]pyrimidine-3-carboxamide]: the IC50 with Mino cells was in the range of 1000 to 10000 nM. For the same compound, the IC50 in the test on JeKo-1 cells was in the range of 1000 to 10000 nM. Moreover, at BTK, the Dmax was more than 90% and the DC50 was 10 to 50 nM.
In the case of `NC(=O)c1c(-c2ccc(Oc3ccccc3)cc2)nn2c1NCCC2C1CCN(C2CCN(CCN3CCN(c4ccc5c(c4)C(=O)N(C4CCC(=O)NC4=O)C5=O)CC3)CC2)CC1` (stereo not drawn) [Compound 307, 7-(1′-(2-(4-(2-(2,6-dioxopiperidin-3-yl)-1,3-dioxoisoindolin-5-yl)piperazin-1-yl)ethyl)-[1,4′-bipiperidin]-4-yl)-2-(4-phenoxyphenyl)-4,5,6,7-tetrahydropyrazolo[1,5-a]pyrimidine-3-carboxamide], the IC50 in the test on Mino cells is 1000 to 10000 nM; with JeKo-1 cells it was more than 10000 nM. In addition, the Dmax on BTK was more than 75%. Besides, the DC50 at BTK is more than 50 nM.
With `NC(=O)c1c(-c2ccc(Oc3ccccc3)cc2)nn2c1NCCC2C1CCN(C2CCN(CCN3CCN(c4ccc5c(c4)CN(C4CCC(=O)NC4=O)C5=O)CC3)CC2)CC1` (stereo not drawn) [Compound 308, 7-(1′-(2-(4-(2-(2,6-dioxopiperidin-3-yl)-1-oxoisoindolin-5-yl)piperazin-1-yl)ethyl)-[1,4′-bipiperidin]-4-yl)-2-(4-phenoxyphenyl)-4,5,6,7-tetrahydropyrazolo[1,5-a]pyrimidine-3-carboxamide], the IC50 in the test with Mino cells was 1000 to 10000 nM. The IC50 in the test with JeKo-1 cells is more than 10000 nM. At BTK, this compound displayed a Dmax of more than 75% and a DC50 of 10 to 50 nM.
Regarding `NC(=O)c1c(-c2ccc(Oc3ccccc3)cc2)nn2c1NCCC2C1CCN(C2CCN(CCC3CCN(c4ccc5c(c4)C(=O)N(C4CCC(=O)NC4=O)C5=O)CC3)CC2)CC1` (stereo not drawn) [Compound 309, 7-(1′-(2-(1-(2-(2,6-dioxopiperidin-3-yl)-1,3-dioxoisoindolin-5-yl)piperidin-4-yl)ethyl)-[1,4′-bipiperidin]-4-yl)-2-(4-phenoxyphenyl)-4,5,6,7-tetrahydropyrazolo[1,5-a]pyrimidine-3-carboxamide], the IC50 in the test with Mino cells and with JeKo-1 cells was more than 10000 nM in each case. Further, at BTK, the Dmax is more than 75%. The compound further yielded a DC50 on BTK of 10 to 50 nM.
In the case of `NC(=O)c1c(-c2ccc(Oc3ccccc3)cc2)nn2c1NCCC2C1CCN(C2CCN(CCC3CCN(c4ccc5c(c4)CN(C4CCC(=O)NC4=O)C5=O)CC3)CC2)CC1` (stereo not drawn) [Compound 310, 7-(1′-(2-(1-(2-(2,6-dioxopiperidin-3-yl)-1-oxoisoindolin-5-yl)piperidin-4-yl)ethyl)-[1,4′-bipiperidin]-4-yl)-2-(4-phenoxyphenyl)-4,5,6,7-tetrahydropyrazolo[1,5-a]pyrimidine-3-carboxamide], in the test with Mino cells, the IC50 is more than 10000 nM. The IC50 with JeKo-1 cells was more than 10000 nM. Further, at BTK, the Dmax is more than 75% and the 50% degradation concentration (DC50) lay within 10 to 50 nM.
As to `NC(=O)c1c(-c2ccc(Oc3ccccc3)cc2)nn2c1NCCC2C1CCN(C2CCN(CCN3CCC(c4ccc5c(c4)C(=O)N(C4CCC(=O)NC4=O)C5=O)CC3)CC2)CC1` (stereo not drawn) [Compound 311, 7-(1′-(2-(4-(2-(2,6-dioxopiperidin-3-yl)-1,3-dioxoisoindolin-5-yl)piperidin-1-yl)ethyl)-[1,4′-bipiperidin]-4-yl)-2-(4-phenoxyphenyl)-4,5,6,7-tetrahydropyrazolo[1,5-a]pyrimidine-3-carboxamide], the IC50 in the test on Mino cells and with JeKo-1 cells was more than 10000 nM in each case. Further, the Dmax on BTK is more than 75%. The same compound gave a 50% degradation concentration (DC50) on BTK of more than 50 nM.
